Test results as given in US10555687B2, “Apparatus and method for physiologic and pharmacodynamic assessment and monitoring” (priority 2015, dated 2020).

System: Aβ fiber
Assay: PRD pharmacological assessment of sciatic nerve pain
Format: in vivo, human
Source text: According to one embodiment, the neuro-stimulator can be integrated with a smartphone, thereby allowing for the detection of mechanism specific nociception via recording and parameterization of the PRD under a multitude of conditions. Parameterization of the PRD curve includes two static measures: a pupillary baseline and peak dilation diameters (dilation amplitude or DA), and at least three dynamic measures: slopes of the ascending and descending portions of the PRD curve representing the dilation velocity (DV) and recovery velocity, as well as the duration of the reflex, and the area under the curve representing pain sensitivity/intensity.
By one embodiment, large-fiber neuropathic pain is transmitted via Aβ nerve fiber type, which is stimulated at 2000 Hz. Neuropathic pain is detected and measured by examining the relationship of the parameters of the PRD to a 2000 Hz stimulus. Small fiber neuropathic pain is transmitted via C-fiber and Aδ fibers, and is often seen with metabolic disorders such as diabetes or chemotherapy induced neuropathic pain. The neuropathic pain index (NPI) integrates the intensity stimulus (mA) relative to the DV, DA, AUC and recovery time. Accordingly, neuropathic pain can be defined with respect to whether the pain is a small fiber based pain or a large fiber based pain. Moreover the NPI provisions for flexibility of monitoring an intervention. […]

NCC1(CC(=O)O)CCCCC1 [Gabapentin]
pain sensitivity (PRD) in sciatic nerve pain (compression of the Aβ fiber, large fiber neuropathic pain (FIG. 8B)): diminishes the pain sensitivity
area under the PRD curve compared with opioid intervention (sciatic nerve pain (FIG. 8B)): substantially smaller
